# Test results as given in patent US20140179726A1, “GUT MICROFLORA AS BIOMARKERS FOR THE PROGNOSIS OF CIRRHOSIS AND BRAIN DYSFUNCTION” (priority 2011, published 2014).
# System: stool microbiome
# Assay: Stool microbiome by multitag pyrosequencing, family level, within HE group (Example 1)
# Format: in vivo, human
# Parameters: normalized abundance of Streptococcaceae: unit not given here
# Details: HE patients
# Experimental: Interrogation of the Microbiome: Stool was collected and DNA extracted for microbiome analysis within 24 hours of collection from patients and controls using published techniques (29). We first routinely use Length Heterogeneity PCR (LH-PCR) fingerprinting of the 16S rRNA to rapidly survey our samples and standardize the community amplification. We then interrogated the microbial taxa associated with the gut fecal microbiome using Multitag Pyrosequencing (MTPS). This technique allows the rapid sequencing of multiple samples at one time yielding thousands of sequence reads per sample (12).
# Microbiome Community Fingerprinting: LH-PCR was done to standardize the community analysis as previously published (21). Briefly, total genomic DNA was extracted from tissue using Bio101 kit from MP Biomedicals Inc., Montreal, Quebec as per the manufacturer's instructions. About 10 ng of extracted DNA was amplified by PCR using a fluorescently labeled forward primer 27F (5’-(6FAM) AGAGTTTGATCCTGGCTCA G-3′, SEQ ID NO: 1) and unlabeled reverse primer 355R′ (5′-GCTGCCTCCCGTAGGAGT-3′, SEQ ID NO: 2). Both primers are universal primers for Bacteria (22). The LH-PCR products were diluted according to their intensity on agarose gel electrophoresis and mixed with ILS-600 size standards (Promega) and HiDi Formamide (Applied Biosystems, Foster City, Calif.). The diluted samples were then separated on a ABI 3130x1 fluorescent capillary sequencer (Applied Biosystems, Foster City, Calif.) and processed using the Genemapper™ software package (Applied Biosystems, Foster City, Calif.). Normalized peak areas were calculated using a custom PERL script and OTUs constituting less than 1% of the total community from each sample were eliminated from the analysis to remove the variable low abundance components within the communities.
# MTPS: We employed the MTPS process to characterize the microbiome from the fecal samples. Specifically, we have generated a set of 96 emulsion PCR fusion primers that contain the 454 emulsion PCR linkers on the 27F and 355R primers and a different 8 base “barcode” between the A adapter and 27F primer. Thus, each fecal sample was amplified with unique bar-coded forward 16S rRNA primers and then up to 96 samples were pooled and subjected to emulsion PCR and pyrosequenced using a GS-FLX pyrosequencer (Roche). Data from each pooled sample were “deconvoluted” by sorting the sequences into bins based on the barcodes using custom PERL scripts. Thus, we were able to normalize each sample by the total number of reads from each barcode. We have noted that ligating tagged primers to PCR amplicons distorts the abundances of the communities and thus it is critical to incorporate the tags during the original amplification step (12). Several groups have employed various barcoding strategies to analyze multiple samples and this strategy is now well accepted (38).
# RDP10 Analysis: We identified the taxa present in each sample using the Bayesian analysis tool in Version 10 of the Ribosomal Database Project (RDP10). The abundances of the bacterial identifications were then normalized using a custom PERL script and taxa present at >1% of the community were tabulated. We chose this cutoff because of our a priori assumption that taxa present in <1% of the community vary between individuals and have minimal contribution to the functionality of that community and 2,000 reads per sample will only reliably identify community components that are greater than 1% in abundance (13).
# The cirrhosis group was divided into those with and without HE and were compared. Data from the significant variables between HE and non-HE groups were combined in a MANOVA model. Within HE patients, comparison was made between those on lactulose alone to those with lactulose and rifaximin. Microbiome abundance comparisons between groups were made at a family level using non-parametric tests. […]
smiles,measurement,value
OC[C@H]1O[C@@H](O[C@@H]2[C@@H](CO)OC(O)(CO)[C@H]2O)[C@H](O)[C@@H](O)[C@H]1O (mixture of isomers) [lactulose],normalized abundance of Alcaligenaceae,12.6±9%
same,normalized abundance of Bacteroidaceae,39±35%
same,normalized abundance of Enterobacteriaceae,26±40%
same,normalized abundance of Lactobacillaceae,2±1%
same,normalized abundance of Porphyromonadaceae,14±21%
same,normalized abundance of Prevotellaceae,18±25%
same,normalized abundance of Ruminococcaceae,17±22%
same,normalized abundance of Streptococcaceae,4±10
same,normalized abundance of Veillonellaceae,15±13%
